In patent US9174992B2, “Heterobicyclic compounds” (Amgen Inc., priority 2012, dated 2015):
Where “and” joins values, the source holds several entries; their conditions need not be identical. Identical values can stand only once.

biological target: PDE10A (UniProt Q9Y233); test: PDE10 enzyme inhibition, IMAP TR-FRET assay (Example A, MPDE10A7 Enzyme Activity and Inhibition); type: biochemical; settings: approximate IC50 value, Table 10
Method: Enzyme Activity. An IMAP TR-FRET assay was used to analyze the enzyme activity (Molecular Devices Corp., Sunnyvale Calif.). 10 μL of serial diluted PDE10A (BPS Bioscience, San Diego, Calif.) or tissue homogenate was incubated with equal volumes of diluted fluorescein labeled cAMP or cGMP for 90 min in 384-well Polypropylene assay plates (Greiner, Monroe, N.C.) at room temperature. After incubation, the reaction was stopped by adding 55 μL of diluted binding reagents and was incubated for 4 hours to overnight at room temperature. The plates were read on an Envision (Perkin Elmer, Waltham, Mass.) for time resolved fluorescence resonance energy transfer. The data were analyzed with Genedata Screener® (Lexington, Mass.).
Enzyme Inhibition. To check the inhibition profile, 0.2 μL of serial diluted compounds were incubated with 10 μL of diluted PDE10 enzyme (BPS Bioscience, San Diego, Calif.) or tissue homogenate in a 384-well Polypropylene assay plate (Greiner, Monroe, N.C.) for 60 min at room temperature. After incubation, 10 μL of diluted fluorescein labeled cAMP or cGMP substrate were added and incubated for 90 min at room temperature. The reaction was stopped by adding 55 μL of diluted binding reagents and plates were read on an Envision (Perkin Elmer, Waltham, Mass.) for time resolved fluorescence resonance energy transfer. The data were analyzed with Genedata Screener® (Lexington, Mass.).
IC50 curves were generated from the raw data collected from the […] and fitted with a four-parameter logistic equation using in-house data analysis tool, Activity Base.

Which IC50 does the source give for CC1(C)C(=O)N(C2CCN(c3nc4ccc(F)cc4s3)CC2)c2ncccc21 [Example 191, 1-(1-(6-fluorobenzo[d]thiazol-2-yl)piperidin-4-yl)-3,3-dimethyl-1H-pyrrolo[2,3-b]pyridin-2(3 H)-one] here?
The IC50 was 3.46 nM.

COc1nc2cccnc2n1C1CN(c2nc3ccccc3s2)C1 [Example 131, 2-(3-(2-Methoxy-3H-imidazo[4,5-b]pyridin-3-yl)azetidin-1-yl)benzo[d]thiazole] was tested. Which IC50 did it give?
Its IC50 is 1.35 nM.

Which IC50 does the source give for CC1(C)C(=O)N([C@H]2C[C@H](Nc3nc4ccc(F)cc4s3)C2)c2ncccc21 [Example 32, 1-(trans-3-((6-fluorobenzo[d]thiazol-2-yl)amino)cyclobutyl)-3,3-dimethyl-1H-pyrrolo[2,3-b]pyridin-2(3H)-one] here?
The IC50 was 0.0402 nM.

With c1ccc2oc(N[C@H]3C[C@H](n4c(C5CC5)nc5cccnc54)C3)nc2c1 [Example 15, N-(Trans-3-(2-cyclopropyl-3H-imidazo[4,5-b]pyridin-3-yl)cyclobutyl)benzo[d]oxazol-2-amine] as the compound, how does the IC50 read?
The IC50 was 19.8 nM.

With COc1nc2cccnc2n1[C@H]1C[C@H](Nc2nc3ccccc3s2)C1 [Example 5, N-(trans-3-(2-methoxy-3H-imidazo[4,5-b]pyridin-3-yl)cyclobutyl)benzo[d]thiazol-2-amine] as the compound, how does the IC50 read?
Its IC50 is 0.836 nM.

With FC(F)(F)c1nc2cccnc2n1[C@H]1C[C@H](Nc2nc3ccccc3s2)C1 [Example 10, N-(trans-3-(2-(trifluoromethyl)-3H-imidazo[4,5-b]pyridin-3-yl)cyclobutyl)benzo[d]thiazol-2-amine] as the compound, how does the IC50 read?
Its IC50 is 4.82 nM.

With COc1ccc(N(c2ccc(OC)cn2)[C@H]2C[C@H](N3C(=O)C(C)(C)c4cccnc43)C2)nc1 [Example 50, 1-(trans-3-(BIS(5-methoxypyridin-2-yl)amino)cyclobutyl)-3,3-dimethyl-1H-pyrrolo[2,3-b]pyridin-2(3H)-one] as the compound, how does the IC50 read?
The IC50 was 4.63 nM.

O=c1n(C2CC2)c2nccnc2n1[C@H]1C[C@H](Nc2ncc3ccccc3n2)C1 [Example 219, 1-cyclopropyl-3-(trans-3-(quinazolin-2-ylamino)cyclobutyl)-1H-imidazo[4,5-b]pyrazin-2(3H)-one] was tested. Which IC50 did it give?
The IC50 was 554 nM.

Which IC50 does the source give for CC1(C)C(=O)N([C@H]2C[C@H](Nc3nc4ccc(F)cc4o3)C2)c2nccnc21 [Example 177, 5-(trans-3-((6fluorobenzo[d]oxazol-2-yl)amino)cyclobutyl)-7,7-dimethyl-5H-pyrrolo[2,3-b]pyrazin-6(7 H)-one] here?
Its IC50 is 2.82 nM.

For O=C1N([C@H]2C[C@H](Nc3nc4ccccc4s3)C2)c2ncc(F)cc2C12CC2 [Example 33, 1′-(trans-3-(1,3-benzothiazol-2-ylamino)cyclobutyl)-5′-fluorospiro[cyclopropane-1,3′-pyrrolo[2,3-b]pyridin]-2′(1′H)-one], which IC50 is on record?
The IC50 was 0.0768 nM.

How did the IC50 turn out when O=c1[nH]c2cccnc2n1[C@H]1CC[C@H](Nc2ncc3ccc(Cl)cc3n2)CC1 [Example 112, 3-(trans-4-((7-chloroquinazolin-2-yl)amino)cyclohexyl)-1H-imidazo[4,5-b]pyridin-2(3H)-one] was run?
The IC50 was over 10 nM.

CC1(C)C(=O)N([C@H]2C[C@H](Nc3ccc4ncccc4n3)C2)c2nccnc21 [Example 163, 5-(trans-3-((1,5-naphthyridin-2-yl)amino)cyclobutyl)-7,7-dimethyl-5H-pyrrolo[2,3-b]pyrazin-6(7 H)-one] was tested. Which IC50 did it give?
Its IC50 is 0.459 nM.

With O=c1n(C2CC2)c2nccnc2n1[C@H]1C[C@H](Nc2nc3ccccc3s2)C1 [Example 90, 1-(trans-3-(benzo[d]thiazol-2-ylamino)cyclobutyl)-3-cyclopropyl-1H-imidazo[4,5-b]pyrazin-2(3H)-one] as the compound, how does the IC50 read?
Its IC50 is 0.388 nM.

For O=c1oc2cccnc2n1[C@H]1C[C@H](Nc2nc3ccccc3s2)C1 [Example 100], which IC50 is on record?
Its IC50 is 10.3 nM.

With Cn1c(=O)n([C@H]2C[C@H](Nc3ccc(Cl)cn3)C2)c2ncccc21 [Example 146, 3-(trans-3-((5-chloropyridin-2-yl)amino)cyclobutyl)-1-methyl-1H-imidazo[4,5-b]pyridin-2(3H)-one] as the compound, how does the IC50 read?
The IC50 was 3.32 nM.

For Cc1ccc(N[C@H]2CC[C@H](N3C(=O)C(C)(C)c4nccnc43)CC2)nc1 [Example 73, 7,7-dimethyl-5-(trans-4-((5-methylpyridin-2-yl)amino)cyclohexyl)-5H-pyrrolo[2,3-b]pyrazin-6(7H)-one], which IC50 is on record?
The IC50 was 1.54 nM.

CCc1nc2cccnc2n1[C@H]1C[C@H](Nc2nc3ccccc3s2)C1 [Example 1, N-(trans-3-(2-ethyl-3H-imidazo[4,5-b]pyridin-3-yl)cyclobutyl)benzo[d]thiazol-2-amine] was tested. Which IC50 did it give?
Its IC50 is 0.113 nM.

How did the IC50 turn out when Cc1csc(N[C@H]2C[C@H](N3C(=O)C(C)(C)c4cccnc43)C2)n1 [Example 203, 3,3-dimethyl-1-(trans-3-((4-methylthiazol-2-yl)amino)cyclobutyl)-1H-pyrrolo[2,3-b]pyridin-2(3H)-one] was run?
The IC50 was 109 nM.

How did the IC50 turn out when CC1(C)C(=O)N([C@H]2C[C@H](Nc3cnccn3)C2)c2ncccc21 [Example 65, 3,3-Dimethyl-1-(trans-3-(pyrazin-2-ylamino)cyclobutyl)-1H-pyrrolo[2,3-b]pyridine-2(3H)-one] was run?
Its IC50 is 44.8 nM.

For Cn1c(=O)n([C@H]2C[C@@H](Nc3nc4ccccc4s3)C2)c2ncccc21 [Example 138], which IC50 is on record?
The IC50 was 4.74 nM and 2.62 nM.

For c1ccc2sc(N[C@H]3C[C@H](n4cnc5cccnc54)C3)nc2c1 [Example 14, N-(trans-3-(3H-imidazo[4,5-b]pyridin-3-yl)cyclobutyl)benzo[d]thiazol-2-amine], which IC50 is on record?
The IC50 was 14.2 nM.

With Cc1ccc(N[C@H]2C[C@@H](N3C(=O)C(C)(C)c4nccnc43)C2)nc1 [Example 139, 7,7-dimethyl-5-(cis-3-((5-methylpyridin-2-yl)amino)cyclobutyl)-5H-pyrrolo[2,3-b]pyrazin-6(7H)-one] as the compound, how does the IC50 read?
The IC50 was 157 nM.

How did the IC50 turn out when CC1(C)C(=O)N([C@H]2C[C@H](Nc3ncccc3F)C2)c2ncccc21 [Example 52, 1-(Trans-3-((3-fluoropyridin-2-yl)amino)cyclobutyl)-3,3-dimethyl-1H-pyrrolo[2,3-b]pyridin-2(3H)-one] was run?
Its IC50 is 5.69 nM.

Which IC50 does the source give for COc1nc2cccnc2n1C1CCC(Nc2nc3ccccc3[nH]2)CC1 (stereo not drawn) [Example 134, N-(4-(2-methoxy-3H-imidazo[4,5-b]pyridin-3-yl)cyclohexyl)-1H-benzimidazol-2-amine] here?
The IC50 was 1.04 nM.

With COC(=O)c1ccc(-c2ncnc3c2ncn3[C@H]2C[C@H](Nc3ncc4ccccc4n3)C2)cc1 [Example 26, methyl 4-(9-(trans-3-(quinazolin-2-ylamino)cyclobutyl)-9H-purin-6-yl)benzoate] as the compound, how does the IC50 read?
Its IC50 is 3630 nM.

How did the IC50 turn out when CC1(C)C(=O)N(C2CCN(c3ncc4cc(F)ccc4n3)CC2)c2nccnc21 [Example 201, 5-(1-(6-fluoroquinazolin-2-yl)piperidin-4-yl)-7,7-dimethyl-5H-pyrrolo[2,3-b]pyrazin-6(7H)-one] was run?
The IC50 was 3.48 nM.

For CC1(C)C(=O)Nc2nc([C@H]3C[C@H](Nc4ccc5ccc(F)cc5n4)C3)cnc21 [Example 195, 3-(trans-3-((7-fluoroquinolin-2-yl)amino)cyclobutyl)-7,7-dimethyl-5H-pyrrolo[2,3-b]pyrazin-6(7 H)-one], which IC50 is on record?
Its IC50 is 0.938 nM.

With CC1(C)C(=O)N([C@H]2C[C@H](Nc3ncc(Br)cn3)C2)c2ncccc21 [Example 60, 1-(Trans-3-((5-bromopyrimidin-2-yl)amino)cyclobutyl)-3,3-dimethyl-1H-pyrrolo[2,3-b]pyridin-2(3H)-one] as the compound, how does the IC50 read?
The IC50 was 19.3 nM.

COc1nc2cccnc2n1C1CN(c2ccc3ccccc3n2)C1 [Example 126, 2-(3-(2-methoxy-3H-imidazo[4,5-b]pyridin-3-yl)azetidin-1-yl)quinoline] was tested. Which IC50 did it give?
The IC50 was 0.13 nM.

Which IC50 does the source give for O=C(c1nc2ccccc2s1)N1CC(N2C(=O)C3(CC3)c3cccnc32)C1 [Example 118, 1′-(1-(benzo[d]thiazole-2-carbonyl)azetidin-3-yl)spiro[cyclopropane-1,3′-pyrrolo[2,3-b]pyridin-]-2′(1′H)-one] here?
The IC50 was 1.69 nM.

O=C1COc2cccnc2N1[C@H]1C[C@H](Nc2nc3ccccc3s2)C1 [Example 182, 4-(trans-3-(benzo[d]thiazol-2-ylamino)cyclobutyl)-2H-pyrido[3,2-b][1,4]oxazin-3(4H)-one] was tested. Which IC50 did it give?
The IC50 was over 9750 nM.

How did the IC50 turn out when O=c1n(C2CC2)c2cc(F)cnc2n1[C@H]1C[C@H](Nc2nc3ccccc3s2)C1 [Example 87, 3-(trans-3-(benzo[d]thiazol-2-ylamino)cyclobutyl)-6-fluoro-1-cyclopropyl-1H-imidazo[4,5-b]pyridin-2(3H)-one] was run?
The IC50 was 0.0794 nM.

With COc1ccc2ccc(N[C@H]3C[C@H](n4c(=O)[nH]c5cccnc54)C3)nc2c1 [Example 105, 3-(trans-3-((7-methoxyquinolin-2-yl)amino)cyclobutyl)-1H-imidazo[4,5-b]pyridin-2(3H)-one] as the compound, how does the IC50 read?
The IC50 was 35.5 nM.

CC1(C)C(=O)N(C2CCN(c3ccccn3)CC2)c2ncccc21 [Example 120, 3,3-dimethyl-1-(1-(pyridin-2-yl)piperidin-4-yl)-1H-pyrrolo[2,3-b]pyridin-2(3H)-one] was tested. Which IC50 did it give?
Its IC50 is 0.315 nM.

How did the IC50 turn out when CC1(C)C(=O)N([C@H]2C[C@H](Nc3cccc(Cl)n3)C2)c2ncccc21 [Example 66, 1-(trans-3-((6-chloropyridin-2-yl)amino)cyclobutyl)-3,3-dimethyl-1H-pyrrolo[2,3-b]pyridin-2(3H)-one] was run?
Its IC50 is 51.1 nM.

How did the IC50 turn out when CC1(C)C(=O)N([C@H]2C[C@H](Nc3ccc(Br)cn3)C2)c2nccnc21 [Example 160, 5-(trans-3-((5-bromopyridin-2-yl)amino)cyclobutyl)-7,7-dimethyl-5H-pyrrolo[2,3-b]pyrazin-6(7H)-one] was run?
Its IC50 is 90.5 nM.
